# Source: patent publication USRE46630E1, “Substituted 4-pyridones and their use as inhibitors of neutrophil elastase activity” (Boehringer Ingelheim International GmbH, priority 2012, dated 2017)
# Target: T1, Human neutrophil elastase (Homo sapiens, UniProt P08246)
# T1 construct: purchased Calbiochem 324681
# T1 sequence (P08246 30-267): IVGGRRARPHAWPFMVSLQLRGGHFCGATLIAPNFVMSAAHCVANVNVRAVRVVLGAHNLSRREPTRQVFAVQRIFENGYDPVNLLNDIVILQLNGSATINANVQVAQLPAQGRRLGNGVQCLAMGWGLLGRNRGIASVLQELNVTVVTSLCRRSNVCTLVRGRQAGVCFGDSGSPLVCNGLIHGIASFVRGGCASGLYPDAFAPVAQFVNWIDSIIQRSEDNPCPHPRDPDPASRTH
# Assay: Human Neutrophil Elastase Assay
# Assay type: biochemical
# Conditions: Neutrophil Elastase assay; substrate MeOSuc-Ala-Ala-Pro-Val-AMC 250 μM; 15 min preincubation, 60 min incubation at room temperature; pH 7.5
# Experimental: Human Neutrophil Elastase Assay
# All other materials were of the highest grade commercially available.
# The following buffers were used: Compound buffer: 100 mM Tris, 500 mM NaCl, adjusted to pH 7.5; Assay buffer: 100 mM Tris, 500 mM NaCl, adjusted to pH 7.5, containing 0.01% BSA.
# Assay conditions: Test compounds were prediluted in DMSO and subsequently in compound buffer (5% DMSO final). […] After inactivation of the enzyme, fluorescence intensities were measured at 380 nm excitation and 460 nm emission wavelengths.
# Each plate contains wells with a high value control (DMSO+enzyme+substrate) and wells with a low value control (DMSO+inactivated enzyme+substrate). […] Means of low values were taken as 0%, means of high values as 100%.
row,IC50,Structure (SMILES)
1,1.2 nM,"CNC(=O)c1cn(C(C)c2ccc(C#N)cc2)c(C)c(-c2cccc(C(F)F)c2)c1=O (single isomer, unassigned) [Example 8A]"
2,522 nM,"CNC(=O)c1cn(C(C)c2ccc(C#N)cc2)c(C)c(-c2cccc(C(F)F)c2)c1=O (single isomer, unassigned) [Example 8B]"
3,3.7 nM,"CNC(=O)c1cn(C(C)c2ccc(C#N)cc2)c(C)c(-c2ccnc(C(F)(F)F)c2)c1=O (single isomer, unassigned) [Example 9A]"
4,1510 nM,"CNC(=O)c1cn(C(C)c2ccc(C#N)cc2)c(C)c(-c2ccnc(C(F)(F)F)c2)c1=O (single isomer, unassigned) [Example 9B]"
5,< 1 nM,"CCNC(=O)c1cn(C(C)c2ccc(C#N)cc2)c(C)c(-c2cccc(C(F)(F)F)c2)c1=O (single isomer, unassigned) [Example 10A]"
6,290 nM,"CCNC(=O)c1cn(C(C)c2ccc(C#N)cc2)c(C)c(-c2cccc(C(F)(F)F)c2)c1=O (single isomer, unassigned) [Example 10B]"
7,< 1 nM,"Cc1c(-c2cccc(C(F)F)c2)c(=O)c(C(=O)NCc2ccc(S(C)(=O)=O)cc2)cn1C(C)c1ccc(C#N)cc1 (single isomer, unassigned) [Example 11A]"
8,19.5 nM,"Cc1c(-c2cccc(C(F)F)c2)c(=O)c(C(=O)NCc2ccc(S(C)(=O)=O)cc2)cn1C(C)c1ccc(C#N)cc1 (single isomer, unassigned) [Example 11B]"
9,67.8 nM,"CNC(=O)c1cn(C(C)c2ccc(C#N)cn2)c(C)c(-c2cccc(C(F)(F)F)c2)c1=O (single isomer, unassigned) [Example 15B]"
10,4.2 nM,"CNC(=O)c1cn(C(C)c2ccc(C#N)cn2)c(C)c(-c2cccc(C(F)F)c2)c1=O (single isomer, unassigned) [Example 16A]"
11,372 nM,"CNC(=O)c1cn(C(C)c2ccc(C#N)cn2)c(C)c(-c2cccc(C(F)F)c2)c1=O (single isomer, unassigned) [Example 16B]"
12,4.2 nM,"CNC(=O)c1cn(C(C)c2ccc(C#N)cc2)c(C)c(-c2cccc(CF)c2)c1=O (single isomer, unassigned) [Example 31B]"
13,15.2 nM,"Cc1c(-c2cccc(C(F)(F)F)c2)c(=O)c(C(=O)NCCO)cn1Cc1ccc(C#N)cc1 [Example 1.1, 1-(4-Cyano-benzyl)-6-methyl-4-oxo-5-(3-trifluoromethyl-phenyl)-1,4-dihydro-pyridine-3-carboxylic acid (2-hydroxy-ethyl)-amide]"
14,48.3 nM,Cc1c(-c2cccc(C(F)(F)F)c2)c(=O)c(C(=O)NCC2CCN(C)CC2)cn1Cc1ccc(C#N)cc1 [Example 1.2]
15,13 nM,COCCCNC(=O)c1cn(Cc2ccc(C#N)cc2)c(C)c(-c2cccc(C(F)(F)F)c2)c1=O [Example 1.3]
16,27.6 nM,Cc1c(-c2cccc(C(F)(F)F)c2)c(=O)c(C(=O)NCCCN(C)C)cn1Cc1ccc(C#N)cc1 [Example 1.4]
17,10.4 nM,COCCNC(=O)c1cn(Cc2ccc(C#N)cc2)c(C)c(-c2cccc(C(F)(F)F)c2)c1=O [Example 1.5]
18,30.5 nM,Cc1c(-c2cccc(C(F)(F)F)c2)c(=O)c(C(=O)NCCN(C)C)cn1Cc1ccc(C#N)cc1 [Example 1.6]
19,15.8 nM,Cc1c(-c2cccc(C(F)(F)F)c2)c(=O)c(C(=O)NCC2CCN(C(=O)CN(C)C)CC2)cn1Cc1ccc(C#N)cc1 [Example 1.7]
20,83 nM,Cc1c(-c2cccc(C(F)(F)F)c2)c(=O)c(C(=O)NCC2(O)CCN(C)CC2)cn1Cc1ccc(C#N)cc1 [Example 1.8]

row,IC50,Structure (SMILES)
1,8.4 nM,Cc1c(-c2cccc(C(F)(F)F)c2)c(=O)c(C(=O)NCCCO)cn1Cc1ccc(C#N)cc1 [Example 1.9]
2,1.1 nM,Cc1c(-c2cccc(C(F)(F)F)c2)c(=O)c(C(=O)NCc2ccc([S+](C)[O-])cc2)cn1Cc1ccc(C#N)cc1 (stereo not shown) [Example 1.10]
3,14.4 nM,CNC(=O)c1cn(Cc2ccc(C#N)cc2)c(C)c(-c2cccc(C(F)(F)F)c2)c1=O [Example 1.11]
4,12.1 nM,Cc1c(-c2cccc(C(F)(F)F)c2)c(=O)c(C(=O)NC2CNC(=O)C2)cn1Cc1ccc(C#N)cc1 (stereo not shown) [Example 1.12]
5,6.6 nM,Cc1c(-c2cccc(C(F)(F)F)c2)c(=O)c(C(=O)NCC[S+](C)[O-])cn1Cc1ccc(C#N)cc1 (stereo not shown) [Example 1.13]
6,1.8 nM,Cc1c(-c2cccc(C(F)(F)F)c2)c(=O)c(C(=O)NCc2ccnnc2)cn1Cc1ccc(C#N)cc1 [Example 1.14]
7,7.9 nM,Cc1nnc(CNC(=O)c2cn(Cc3ccc(C#N)cc3)c(C)c(-c3cccc(C(F)(F)F)c3)c2=O)o1 [Example 1.15]
8,7.4 nM,Cc1c(-c2cccc(C(F)(F)F)c2)c(=O)c(C(=O)NCCCS(C)(=O)=O)cn1Cc1ccc(C#N)cc1 [Example 1.16]
9,21 nM,"Cc1c(-c2cccc(C(F)(F)F)c2)c(=O)c(C(=O)NCC(O)CO)cn1Cc1ccc(C#N)cc1 (stereo not shown) [Example 1.17, 1-(4-Cyano-benzyl)-6-methyl-4-oxo-5-(3-trifluoromethyl-phenyl)-1,4-dihydro-pyridine-3-carboxylic acid (2,3-dihydroxy-propyl)-amide]"
10,23.8 nM,CCCNC(=O)c1cn(Cc2ccc(C#N)cc2)c(C)c(-c2cccc(C(F)(F)F)c2)c1=O [Example 1.18]
11,48.1 nM,Cc1c(-c2cccc(C(F)(F)F)c2)c(=O)c(C(=O)NC(CO)CO)cn1Cc1ccc(C#N)cc1 [Example 1.19]
12,10.6 nM,Cc1c(-c2cccc(C(F)(F)F)c2)c(=O)c(C(=O)NCCCCO)cn1Cc1ccc(C#N)cc1 [Example 1.20]
13,14.4 nM,Cc1c(-c2cccc(C(F)(F)F)c2)c(=O)c(C(=O)NCCN2CCNC2=O)cn1Cc1ccc(C#N)cc1 [Example 1.21]
14,44.6 nM,Cc1c(-c2cccc(C(F)(F)F)c2)c(=O)c(C(=O)NC(C)CO)cn1Cc1ccc(C#N)cc1 (stereo not shown) [Example 1.22]
15,19 nM,Cc1c(-c2cccc(C(F)(F)F)c2)c(=O)c(C(=O)NCC(C)O)cn1Cc1ccc(C#N)cc1 (stereo not shown) [Example 1.23]
16,10 nM,CCOCCNC(=O)c1cn(Cc2ccc(C#N)cc2)c(C)c(-c2cccc(C(F)(F)F)c2)c1=O [Example 1.24]
17,10.9 nM,Cc1c(-c2cccc(C(F)(F)F)c2)c(=O)c(C(=O)NCCOCCOCCO)cn1Cc1ccc(C#N)cc1 [Example 1.25]
18,13.2 nM,Cc1c(-c2cccc(C(F)(F)F)c2)c(=O)c(C(=O)NCc2cnn(C)c2)cn1Cc1ccc(C#N)cc1 [Example 1.26]
19,46.4 nM,Cc1c(-c2cccc(C(F)(F)F)c2)c(=O)c(C(=O)N[C@H]2CC[C@H](O)CC2)cn1Cc1ccc(C#N)cc1 [Example 1.27]
20,21.8 nM,Cc1c(-c2cccc(C(F)(F)F)c2)c(=O)c(C(=O)NCCN2CCCC2=O)cn1Cc1ccc(C#N)cc1 [Example 1.28]

row,IC50,Structure (SMILES)
1,31.6 nM,Cc1c(-c2cccc(C(F)(F)F)c2)c(=O)c(C(=O)NC2CCOCC2)cn1Cc1ccc(C#N)cc1 [Example 1.29]
2,17.1 nM,Cc1c(-c2cccc(C(F)(F)F)c2)c(=O)c(C(=O)NCCn2cccn2)cn1Cc1ccc(C#N)cc1 [Example 1.30]
3,13.7 nM,Cc1c(-c2cccc(C(F)(F)F)c2)c(=O)c(C(=O)NCc2cn(C)cn2)cn1Cc1ccc(C#N)cc1 [Example 1.31]
4,23 nM,Cc1c(-c2cccc(C(F)(F)F)c2)c(=O)c(C(=O)NCc2cncn2C)cn1Cc1ccc(C#N)cc1 [Example 1.32]
5,3.7 nM,Cc1c(-c2cccc(C(F)(F)F)c2)c(=O)c(C(=O)NCc2ccnn2C)cn1Cc1ccc(C#N)cc1 [Example 1.33]
6,8.9 nM,Cc1c(-c2cccc(C(F)(F)F)c2)c(=O)c(C(=O)NCc2ccn(C)n2)cn1Cc1ccc(C#N)cc1 [Example 1.34]
7,31.4 nM,Cc1c(-c2cccc(C(F)(F)F)c2)c(=O)c(C(=O)NCC2COCCO2)cn1Cc1ccc(C#N)cc1 (stereo not shown) [Example 1.35]
8,47.1 nM,Cc1c(-c2cccc(C(F)(F)F)c2)c(=O)c(C(=O)N[C@H]2CCC(=O)N(C)C2)cn1Cc1ccc(C#N)cc1 [Example 1.36]
9,95.7 nM,Cc1c(-c2cccc(C(F)(F)F)c2)c(=O)c(C(=O)NC2CCOC2)cn1Cc1ccc(C#N)cc1 (stereo not shown) [Example 1.37]
10,36.9 nM,Cc1c(-c2cccc(C(F)(F)F)c2)c(=O)c(C(=O)NC2COC2)cn1Cc1ccc(C#N)cc1 [Example 1.38]
11,6.2 nM,Cc1c(-c2cccc(C(F)(F)F)c2)c(=O)c(C(=O)NC2CCNC2=O)cn1Cc1ccc(C#N)cc1 (stereo not shown) [Example 1.39]
12,2.1 nM,Cc1c(-c2cccc(C(F)(F)F)c2)c(=O)c(C(=O)NCc2cccc(=O)[nH]2)cn1Cc1ccc(C#N)cc1 [Example 1.40]
13,3.2 nM,Cc1c(-c2cccc(C(F)(F)F)c2)c(=O)c(C(=O)NCc2cccnn2)cn1Cc1ccc(C#N)cc1 [Example 1.41]
14,5.2 nM,Cc1c(-c2cccc(C(F)(F)F)c2)c(=O)c(C(=O)NCc2ccc(=O)[nH]c2)cn1Cc1ccc(C#N)cc1 [Example 1.42]
15,8.9 nM,Cc1c(-c2cccc(C(F)(F)F)c2)c(=O)c(C(=O)NCCc2ccccn2)cn1Cc1ccc(C#N)cc1 [Example 1.43]
16,7.9 nM,Cc1c(-c2cccc(C(F)(F)F)c2)c(=O)c(C(=O)NCCc2cccnc2)cn1Cc1ccc(C#N)cc1 [Example 1.44]
17,7.6 nM,Cc1c(-c2cccc(C(F)(F)F)c2)c(=O)c(C(=O)NCCc2ccncc2)cn1Cc1ccc(C#N)cc1 [Example 1.45]
18,5.9 nM,Cc1c(-c2cccc(C(F)(F)F)c2)c(=O)c(C(=O)NCc2cccnc2)cn1Cc1ccc(C#N)cc1 [Example 1.46]
